Results on 25 molecules are retold here after patent US11897867B2, “6-phenyl-4,5-dihydropyridazin-3(2H)-one derivatives as PDE3A and PDE3B inhibitors for treating cancer” (Bayer Aktiengesellschaft, priority 2017, dated 2024).

Experiment [1] relates to HeLa cells (cervical cancer). Briefly: Cell proliferation measurement (Cell Titer Glo), HeLa. Conditions: Homo sapiens, 72 h treatment, read-out: Anti-proliferation IC50 HeLa (Cervical cancer). It is filed as cell-based. The gist of the method:
(§1)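 Cells (1000/well; 500 for HeLa) plated overnight at 37 °C, then exposed to a ≥10-point compound dilution series for 72 h at 37 °C, DMSO 0.3% final as vehicle. Viability read by CellTiter-Glo luminescence; IC50 from 4-parameter fit against untreated wells.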

The target in a further experiment is T1, human full length PDE3A (Homo sapiens, UniProt Q14432).
T1 construct: Sf9 cells overexpressing human full length PDE3A; purchased SB Drug Discovery, UK; host or cells: Sf9 cells (cell extract)
Briefly: PDE3A enzyme inhibition (3H-cAMP Scintillation Proximity Assay). It is filed as biochemical. Particulars: PDE3A cell extract from Sf9 cells, 60 min room temperature; read-out: Target IC50 PDE3A IC50. The method, boiled down:
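Sf9 cell extract overexpressing human full-length PDE3A, diluted for linear kinetics (<70% substrate used), in 50 mM Tris/HCl pH 7.5, 8.3 mM MgCl2, 1.7 mM EDTA, 0.2% BSA. [8-3H]cAMP substrate, 60 min at room temperature, yttrium SPA bead read-out; IC50 from sigmoidal curves of % activity.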
On the technique in general: In a scintillation proximity assay essentially only radioactivity close to the scintillant gives light.

A further experiment concerns the target T2, human full length PDE3B (Homo sapiens, UniProt Q13370).
T2 construct: Sf9 cells overexpressing human full length PDE3B; purchased SB Drug Discovery, UK; host or cells: Sf9 cells (cell extract)
Briefly: PDE3B enzyme inhibition (3H-cAMP Scintillation Proximity Assay). Particulars: PDE3B cell extract from Sf9 cells, 60 min room temperature; read-out: Target IC50 PDE3B IC50. It is filed as biochemical. The method, boiled down: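 SPA with Sf9 cell extract overexpressing human full-length PDE3B, diluted for linear kinetics and <70% substrate turnover, in 50 mM Tris/HCl pH 7.5, 8.3 mM MgCl2, 1.7 mM EDTA, 0.2% BSA. [8-3H]cAMP substrate, 60 min at room temperature, stopped with yttrium SPA beads. IC50 from sigmoidal fit of % activity vs log concentration.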

A further experiment concerns SK-MEL-3 (melanoma). Briefly: Cell proliferation measurement (Cell Titer Glo), SK-MEL-3. It is filed as cell-based. Particulars: Homo sapiens, SK-MEL3, SK-MEL-3 cells, 72 h treatment, read-out: Anti-proliferation IC50 SK-MEL-3 (melanoma). The method, boiled down:
as §1

T2 sequence (Q13370 whole entry): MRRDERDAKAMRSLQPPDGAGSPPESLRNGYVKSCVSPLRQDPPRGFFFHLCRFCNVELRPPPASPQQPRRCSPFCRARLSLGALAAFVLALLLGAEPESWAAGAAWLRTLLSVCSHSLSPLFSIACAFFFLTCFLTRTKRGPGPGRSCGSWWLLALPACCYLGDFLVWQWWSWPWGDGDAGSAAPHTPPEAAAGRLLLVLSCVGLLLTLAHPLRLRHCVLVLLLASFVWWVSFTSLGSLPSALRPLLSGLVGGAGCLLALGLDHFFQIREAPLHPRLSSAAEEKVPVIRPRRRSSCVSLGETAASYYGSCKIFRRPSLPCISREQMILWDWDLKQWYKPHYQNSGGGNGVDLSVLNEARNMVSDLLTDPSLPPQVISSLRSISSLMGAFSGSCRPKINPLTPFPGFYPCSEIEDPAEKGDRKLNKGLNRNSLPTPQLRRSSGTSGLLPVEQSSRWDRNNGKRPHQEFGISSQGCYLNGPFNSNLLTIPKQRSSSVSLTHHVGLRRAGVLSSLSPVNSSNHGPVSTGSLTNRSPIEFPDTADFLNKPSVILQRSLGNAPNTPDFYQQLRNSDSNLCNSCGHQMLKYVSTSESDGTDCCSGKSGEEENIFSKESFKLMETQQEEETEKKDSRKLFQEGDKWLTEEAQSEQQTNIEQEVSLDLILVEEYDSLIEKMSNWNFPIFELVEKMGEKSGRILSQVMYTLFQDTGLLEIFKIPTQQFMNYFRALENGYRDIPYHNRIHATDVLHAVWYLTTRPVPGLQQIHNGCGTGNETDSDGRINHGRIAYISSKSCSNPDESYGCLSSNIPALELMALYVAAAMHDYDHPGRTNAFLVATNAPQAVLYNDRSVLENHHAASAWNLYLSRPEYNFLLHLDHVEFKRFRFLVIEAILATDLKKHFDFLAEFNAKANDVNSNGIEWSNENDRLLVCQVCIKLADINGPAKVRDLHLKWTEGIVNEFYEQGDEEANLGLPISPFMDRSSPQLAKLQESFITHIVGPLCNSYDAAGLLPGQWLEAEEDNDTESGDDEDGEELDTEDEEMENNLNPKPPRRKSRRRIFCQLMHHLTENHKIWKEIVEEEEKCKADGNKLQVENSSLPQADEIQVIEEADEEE
T1 sequence (Q14432 whole entry): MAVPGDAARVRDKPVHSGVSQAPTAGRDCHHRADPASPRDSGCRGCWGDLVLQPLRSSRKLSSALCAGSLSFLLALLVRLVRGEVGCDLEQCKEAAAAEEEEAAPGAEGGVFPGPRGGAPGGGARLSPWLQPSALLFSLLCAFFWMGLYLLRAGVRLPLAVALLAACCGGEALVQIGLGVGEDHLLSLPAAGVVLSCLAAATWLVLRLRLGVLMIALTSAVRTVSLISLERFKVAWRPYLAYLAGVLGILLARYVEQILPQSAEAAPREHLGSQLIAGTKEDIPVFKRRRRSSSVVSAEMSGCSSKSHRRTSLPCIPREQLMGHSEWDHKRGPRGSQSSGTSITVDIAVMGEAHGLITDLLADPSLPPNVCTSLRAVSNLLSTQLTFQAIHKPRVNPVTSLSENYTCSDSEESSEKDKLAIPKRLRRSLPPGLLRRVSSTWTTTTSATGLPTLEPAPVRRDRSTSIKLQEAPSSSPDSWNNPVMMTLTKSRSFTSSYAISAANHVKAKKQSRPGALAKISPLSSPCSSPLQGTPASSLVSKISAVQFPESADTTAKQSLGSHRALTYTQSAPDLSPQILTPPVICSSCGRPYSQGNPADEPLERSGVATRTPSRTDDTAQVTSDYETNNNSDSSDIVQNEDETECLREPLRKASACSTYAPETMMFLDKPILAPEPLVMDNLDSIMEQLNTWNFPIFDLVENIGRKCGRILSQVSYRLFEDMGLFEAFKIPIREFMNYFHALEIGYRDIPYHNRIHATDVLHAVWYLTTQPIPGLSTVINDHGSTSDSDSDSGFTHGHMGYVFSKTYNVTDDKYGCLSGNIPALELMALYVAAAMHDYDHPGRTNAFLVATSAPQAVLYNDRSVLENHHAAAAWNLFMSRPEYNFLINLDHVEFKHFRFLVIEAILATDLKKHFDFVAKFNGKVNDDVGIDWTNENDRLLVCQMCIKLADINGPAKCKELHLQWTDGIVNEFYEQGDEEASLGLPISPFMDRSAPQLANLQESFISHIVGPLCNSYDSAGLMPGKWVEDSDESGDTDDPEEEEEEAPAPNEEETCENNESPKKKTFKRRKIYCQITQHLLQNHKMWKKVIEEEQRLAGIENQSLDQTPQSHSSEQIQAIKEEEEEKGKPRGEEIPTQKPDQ

For the molecule `Cc1cc(C2=NNC(=O)CC2)ccc1-c1cnc(N)nc1` [Example 91, 6-[4-(2-aminopyrimidin-5-yl)-3-methylphenyl]-4,5-dihydropyridazin-3(2H)-one], the IC50 in experiment [1] was 51.9 nM; on human full length PDE3A it was 57 nM; on human full length PDE3B, 73 nM; with SK-MEL-3 (melanoma) it was over 100 nM.
As for `Cc1ncc(-c2ccc(C3=NNC(=O)CC3)cc2C)cn1` [Example 92, 6-[3-methyl-4-(2-methylpyrimidin-5-yl)phenyl]-4,5-dihydropyridazin-3(2H)-one], the IC50 was 42.3 nM in experiment [1], 61 nM on human full length PDE3A, 88 nM on human full length PDE3B and over 100 nM with SK-MEL-3 (melanoma).
For `Cc1ccc(-c2ccc(C3=NNC(=O)CC3)cc2C)cn1` [Example 93, 6-[3-methyl-4-(6-methylpyridin-3-yl)phenyl]-4,5-dihydropyridazin-3(2H)-one], in that order: 5.39 nM, 38 nM, 49 nM and 24.7 nM.
`Cc1ccc(-c2ccc(C3=NNC(=O)CC3)cc2C)c(F)c1` [Example 94, 6-(2′-fluoro-2,4′-dimethyl[1,1′-biphenyl]-4-yl)-4,5-dihydropyridazin-3(2H)-one]: the IC50 in experiment [1] stood at 7.01 nM; on human full length PDE3A, 190 nM; on human full length PDE3B, 175 nM; with SK-MEL-3 (melanoma) it was 36.9 nM.
Taken in the same sequence, the figures for `Cc1cc(C2=NNC(=O)CC2)ccc1-c1cc(F)c(F)cc1F` [Example 95, 6-(2′,4′,5′-trifluoro-2-methyl[1,1′-biphenyl]-4-yl)-4,5-dihydropyridazin-3(2H)-one] were 9.32 nM, 180 nM, 200 nM and 60.7 nM.
Regarding `Cc1cc(C2=NNC(=O)CC2)ccc1-c1cc(F)c(F)c(F)c1` [Example 96, 6-(3′,4′,5′-trifluoro-2-methyl[1,1′-biphenyl]-4-yl)-4,5-dihydropyridazin-3(2H)-one], the IC50 in experiment [1] was 18.5 nM; at human full length PDE3A, 310 nM; at human full length PDE3B it was 260 nM; in the experiment on SK-MEL-3 (melanoma) it was over 100 nM.
For `Cc1cc(C2=NNC(=O)CC2)ccc1-c1ccc(F)c(F)c1F` [Example 97, 6-(2′,3′,4′-trifluoro-2-methyl[1,1′-biphenyl]-4-yl)-4,5-dihydropyridazin-3(2H)-one], the IC50 worked out at 12.1 nM in experiment [1], 170 nM on human full length PDE3A, 120 nM at human full length PDE3B and 82 nM with SK-MEL-3 (melanoma).
Turning to `Cc1cc(C2=NNC(=O)CC2)ccc1-c1cc(F)ccc1F` [Example 98, 6-(2′,5′-difluoro-2-methyl[1,1′-biphenyl]-4-yl)-4,5-dihydropyridazin-3(2H)-one], the IC50 in experiment [1] came out at 12.7 nM; on human full length PDE3A, 180 nM; at human full length PDE3B it was 120 nM; with SK-MEL-3 (melanoma), 64.3 nM.
Taken in the same sequence, the figures for `Cc1cc(C2=NNC(=O)CC2)ccc1-c1ccccc1C#N` [Example 99, 2′-methyl-4′-(6-oxo-1,4,5,6-tetrahydropyridazin-3-yl)[1,1′-biphenyl]-2-carbonitrile] were 39.9 nM, 280 nM, 530 nM and over 100 nM.
Consider `Cc1cc(C2=NNC(=O)CC2)ccc1-c1ccc(C#N)cc1` [Example 100, 2′-methyl-4′-(6-oxo-1,4,5,6-tetrahydropyridazin-3-yl)[1,1′-biphenyl]-4-carbonitrile], for which the IC50 in experiment [1] was 22.5 nM; at human full length PDE3A, 58 nM; on human full length PDE3B, 59 nM; in the experiment on SK-MEL-3 (melanoma) it was over 100 nM.
Taken in the same sequence, the figures for `Cc1cc(C2=NNC(=O)CC2)ccc1-c1cccc(O)c1` [Example 101, 6-(3′-hydroxy-2-methyl[1,1′-biphenyl]-4-yl)-4,5-dihydropyridazin-3(2H)-one] were 14.6 nM, 67 nM, 67 nM and 36.3 nM.
As to `Cc1cc(C2=NNC(=O)CC2)ccc1-c1ccccc1O` [Example 102, 6-(2′-hydroxy-2-methyl[1,1′-biphenyl]-4-yl)-4,5-dihydropyridazin-3(2H)-one], the IC50 in experiment [1] is 23.4 nM; on human full length PDE3A it was 460 nM; on human full length PDE3B it was 555 nM; with SK-MEL-3 (melanoma) it was over 100 nM.
Take `Cc1cc(C2=NNC(=O)CC2)ccc1-c1cccc(N)c1` [Example 103, 6-(3′-amino-2-methyl[1,1′-biphenyl]-4-yl)-4,5-dihydropyridazin-3(2H)-one]: the IC50 was 36.8 nM in experiment [1], 170 nM at human full length PDE3A, 200 nM at human full length PDE3B and over 100 nM in the experiment on SK-MEL-3 (melanoma).
On to `Cc1cc(C2=NNC(=O)CC2)ccc1-c1cccc(F)c1F` [Example 104, 6-(2′,3′-difluoro-2-methyl[1,1′-biphenyl]-4-yl)-4,5-dihydropyridazin-3(2H)-one], for which the IC50 was determined as 13.4 nM in experiment [1], 120 nM on human full length PDE3A, 120 nM on human full length PDE3B and 70.8 nM with SK-MEL-3 (melanoma).
With `Cc1cc(C2=NNC(=O)CC2)ccc1-c1cc(F)cc(F)c1` [Example 105, 6-(3′,5′-difluoro-2-methyl[1,1′-biphenyl]-4-yl)-4,5-dihydropyridazin-3(2H)-one], the IC50 in experiment [1] was 27.6 nM; at human full length PDE3A, 200 nM; on human full length PDE3B, 200 nM; with SK-MEL-3 (melanoma) it was over 100 nM.
Turning to `Cc1cc(C2=NNC(=O)CC2)ccc1-c1ccc(F)cc1F` [Example 106, 6-(2′,4′-difluoro-2-methyl[1,1′-biphenyl]-4-yl)-4,5-dihydropyridazin-3(2H)-one], the IC50 came to 4.79 nM in experiment [1], 110 nM on human full length PDE3A, 100 nM on human full length PDE3B and 21.4 nM in the experiment with SK-MEL-3 (melanoma).
Taken in the same sequence, the figures for `Cc1ccc(-c2ccc(C3=NNC(=O)CC3)cc2C)cc1F` [Example 107, 6-(3′-fluoro-2,4′-dimethyl[1,1′-biphenyl]-4-yl)-4,5-dihydropyridazin-3(2H)-one] were 9.26 nM, 270 nM, 190 nM and 52.4 nM.
With `Cc1cc(C2=NNC(=O)CC2)ccc1-c1ccc(Cl)c(N)c1` [Example 108, 6-(3′-amino-4′-chloro-2-methyl[1,1′-biphenyl]-4-yl)-4,5-dihydropyridazin-3(2H)-one], the IC50 in experiment [1] stood at 6.54 nM; at human full length PDE3A it was 160 nM; on human full length PDE3B it was 210 nM; in the experiment with SK-MEL-3 (melanoma), 17.8 nM.
As to `Cc1cc(C2=NNC(=O)CC2)ccc1-c1ccccc1F` [Example 109, 6-(2′-fluoro-2-methyl[1,1′-biphenyl]-4-yl)-4,5-dihydropyridazin-3(2H)-one], the IC50 in experiment [1] is 5.63 nM; on human full length PDE3A, 150 nM; at human full length PDE3B, 150 nM; in the experiment on SK-MEL-3 (melanoma), 14.1 nM.
In the case of `Cc1cc(C2=NNC(=O)CC2)ccc1-c1c(F)cccc1F` [Example 110, 6-(2′,6′-difluoro-2-methyl[1,1′-biphenyl]-4-yl)-4,5-dihydropyridazin-3(2H)-one], the IC50 turned out to be 8.57 nM in experiment [1], 240 nM at human full length PDE3A, 260 nM on human full length PDE3B and 39.2 nM in the experiment on SK-MEL-3 (melanoma).
Consider `COc1ccccc1-c1ccc(C2=NNC(=O)CC2)cc1C` [Example 111, 6-(2′-methoxy-2-methyl[1,1′-biphenyl]-4-yl)-4,5-dihydropyridazin-3(2H)-one], for which the IC50 is 39.6 nM in experiment [1], 42 nM on human full length PDE3A, 32 nM on human full length PDE3B and over 100 nM in the experiment on SK-MEL-3 (melanoma).
As to `Cc1cc(C2=NNC(=O)CC2)ccc1-c1cccc(F)c1` [Example 112, 6-(3′-fluoro-2-methyl[1,1′-biphenyl]-4-yl)-4,5-dihydropyridazin-3(2H)-one], the IC50 in experiment [1] was found to be 13.9 nM; at human full length PDE3A, 140 nM; at human full length PDE3B, 110 nM; in the experiment on SK-MEL-3 (melanoma), 58.2 nM.
Consider `COc1cccc(-c2ccc(C3=NNC(=O)CC3)cc2C)c1` [Example 113, 6-(3′-methoxy-2-methyl[1,1′-biphenyl]-4-yl)-4,5-dihydropyridazin-3(2H)-one], for which the IC50 is 33 nM in experiment [1], 88 nM at human full length PDE3A, 91 nM on human full length PDE3B and over 100 nM with SK-MEL-3 (melanoma).
Regarding `Cc1cc(C2=NNC(=O)CC2)ccc1-c1cccc(C(N)=O)c1` [Example 114, 2′-methyl-4′-(6-oxo-1,4,5,6-tetrahydropyridazin-3-yl)[1,1′-biphenyl]-3-carboxamide], the IC50 in experiment [1] is 46.3 nM; at human full length PDE3A, 36 nM; at human full length PDE3B, 53 nM; in the experiment with SK-MEL-3 (melanoma) it was over 100 nM.
`Cc1cc(C2=NNC(=O)CC2)ccc1-c1ccc(N)cc1` [Example 115, 6-(4′-amino-2-methyl[1,1′-biphenyl]-4-yl)-4,5-dihydropyridazin-3(2H)-one]: the IC50 in experiment [1] turned out to be 7.87 nM; on human full length PDE3A, 47 nM; at human full length PDE3B, 80 nM; in the experiment with SK-MEL-3 (melanoma), 37.3 nM.
